Assay [1] has as its target T1, CD38 (shCD38) (Homo sapiens, UniProt P28907).
T1 construct: human CD38 catalytic domain (shCD38)
T1 sequence (P28907 45-300 limits assumed): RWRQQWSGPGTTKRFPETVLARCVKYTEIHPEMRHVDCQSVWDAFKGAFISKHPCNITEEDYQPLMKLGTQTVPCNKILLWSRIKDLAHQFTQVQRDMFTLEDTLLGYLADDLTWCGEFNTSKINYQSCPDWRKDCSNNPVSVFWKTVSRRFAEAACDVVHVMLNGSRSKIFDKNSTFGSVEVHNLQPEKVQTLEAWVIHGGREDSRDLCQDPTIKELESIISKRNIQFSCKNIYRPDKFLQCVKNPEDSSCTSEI
Briefly: inhibition of cADPR hydrolysis, fluorimetric cycling assay; also hydrolysed by shCD38 (RP-HPLC). Conditions: read-out: L-Ribose / IC50. The assay is classed as biochemical.

The target in a further assay is T2, Aplysia cyclase (Aplysia californica, UniProt P29241).
T2 construct: wild-type
T2 sequence (P29241 25-282): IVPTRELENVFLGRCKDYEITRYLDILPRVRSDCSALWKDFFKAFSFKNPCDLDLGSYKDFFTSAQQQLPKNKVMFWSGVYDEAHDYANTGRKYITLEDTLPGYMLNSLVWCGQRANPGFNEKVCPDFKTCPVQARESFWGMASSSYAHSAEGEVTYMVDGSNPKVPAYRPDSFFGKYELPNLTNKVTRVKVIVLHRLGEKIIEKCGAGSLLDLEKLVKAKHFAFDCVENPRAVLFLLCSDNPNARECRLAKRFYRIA
Description: X-ray crystallography, […] cIDPR (authors' unpublished data, Supplementary Figure S2). The assay is classed as binding.

The target in assay [2] is T1, CD38 (shCD38). Description: inhibition of cADPR hydrolysis, fluorimetric cycling assay. Conditions: read-out: L-Ribose / IC50. Format: biochemical.

SMILES strings stand for the structures.

Results on three compounds are retold here after article PMC5700923, “Second messenger analogues highlight unexpected substrate sensitivity of CD38: total synthesis of the hybrid “L-cyclic inosine 5′-diphosphate ribose”” (Scientific Reports, 2017).

Take `O=c1c2ncn3c2ncn1[C@H]1O[C@@H](COP(=O)(O)OP(=O)(O)OC[C@H]2O[C@@H]3[C@H](O)[C@@H]2O)[C@H](O)[C@@H]1O` [compound 5, L-cIDPR]: the IC50 on CD38 (shCD38) [1] is 526 ± 36 µM. With `O=c1c2ncn3c2ncn1[C@@H]1O[C@H](COP(=O)(O)OP(=O)(O)OC[C@H]2O[C@@H]3[C@H](O)[C@@H]2O)[C@@H](O)[C@H]1O` [compound 2, cIDPR], the “ligand species seen in crystal structure” value on Aplysia cyclase was “both linear IDPR and the cyclic N1-cIDPR are present and close to each other, with cIDPR in an upside-down orientation”. Turning to `Nc1nc2c(=O)n3cnc2n1[C@@H]1O[C@H](COP(=O)(O)OP(=O)(O)OC[C@@H]2O[C@H]3[C@@H](O)[C@H]2O)[C@@H](O)[C@H]1O` [compound 7, 8-NH2-L-cIDPR], at CD38 (shCD38) [2], the IC50 was 21 ± 2 µM.
